Paper PMC10620162, “Structure—yeast α-glucosidase inhibitory activity relationship of 9-O-berberrubine carboxylates” (Scientific Reports, 2023)
Where two headings read alike, the source gives them in different places.

Biological target: T1, yeast α-glucosidase (Saccharomyces cerevisiae, UniProt P53341)
T1 construct: purchased Sigma Aldrich
Assay: biochemical
Conditions: for inhibition at 50 µM: read-out: Inhibition at 50 μM (%), 50 μM
Method: Berberrubine derivatives will be assayed for yeast α-glucosidase inhibitory activity. The protocol described by Ramadhan et al. will be used[37]. Briefly, yeast α-glucosidase (0.1 U/mL) and substrate (1 mM p-nitrophenyl-α-D-glucopyranoside) were dissolved in 0.1 M phosphate buffer (pH 6.9). A 10 μL test sample was pre-incubated with α-glucosidase (40 μL) at 37 °C for 10 min. A substrate solution (50 μL) was then added to the reaction mixture and incubated at 37 °C for an additional 20 min, and terminated by adding 1 M Na2CO3 solution (100 μL). […] The percentage inhibition of activity was calculated as follows: % Inhibition = [(A0 − A1)/A0] × 100, where: A0 is the absorbance without the sample; A1 is the absorbance with the sample. The IC50 value was deduced from the plot of % inhibition versus the concentration of the test sample.

T1 sequence (P53341 whole entry): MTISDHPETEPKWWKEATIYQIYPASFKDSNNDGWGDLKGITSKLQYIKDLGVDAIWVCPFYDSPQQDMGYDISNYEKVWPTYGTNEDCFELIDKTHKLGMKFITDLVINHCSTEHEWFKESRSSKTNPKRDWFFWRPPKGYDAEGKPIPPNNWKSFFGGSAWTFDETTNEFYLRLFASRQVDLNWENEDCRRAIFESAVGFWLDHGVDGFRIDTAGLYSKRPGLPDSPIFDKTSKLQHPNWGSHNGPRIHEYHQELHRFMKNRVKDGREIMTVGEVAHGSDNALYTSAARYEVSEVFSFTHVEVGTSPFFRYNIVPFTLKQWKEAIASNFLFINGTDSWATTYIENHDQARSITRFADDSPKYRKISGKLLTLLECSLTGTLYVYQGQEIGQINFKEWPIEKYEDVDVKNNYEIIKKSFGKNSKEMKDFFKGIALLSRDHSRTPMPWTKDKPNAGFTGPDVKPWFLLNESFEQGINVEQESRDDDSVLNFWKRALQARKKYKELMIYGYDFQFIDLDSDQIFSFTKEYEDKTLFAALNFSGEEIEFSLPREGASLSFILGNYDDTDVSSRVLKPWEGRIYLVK

Structure (SMILES)	inhibition at 50 µM	IC50	Inhibition at 50 μM (%) (50 μM)	IC50 (read-out: IC50)
COc1ccc2cc3[n+](cc2c1O)CCc1cc2c(cc1-3)OCO2 [BBRB, 9-hydroxy-10-methoxy-5,6-dihydro-[1,3]dioxolo[4,5-g]isoquinolino[3,2-a]isoquinolin-7-ium chloride, reference compound]	< 0%			
COc1ccc2cc3[n+](cc2c1OC(=O)c1ccccc1)CCc1cc2c(cc1-3)OCO2.[Cl-] [Compound 1, 9-(benzoyloxy)-10-methoxy-5,6-dihydro-[1,3]dioxolo[4,5-g]isoquinolino[3,2-a]isoquinolin-7-ium chloride]	58%	25.3 ± 2.63 µM	57.67%	
COc1ccccc1C(=O)Oc1c(OC)ccc2cc3[n+](cc12)CCc1cc2c(cc1-3)OCO2 [Compound 2, 10-methoxy-9-((2-methoxybenzoyl)oxy)-5,6-dihydro-[1,3]dioxolo[4,5-g]isoquinolino[3,2-a]isoquinolin-7-ium chloride]	79.1%	19.5 ± 1.62 µM		
COc1cccc(C(=O)Oc2c(OC)ccc3cc4[n+](cc23)CCc2cc3c(cc2-4)OCO3)c1 [Compound 3, 10-methoxy-9-((3-methoxybenzoyl)oxy)-5,6-dihydro-[1,3]dioxolo[4,5-g]isoquinolino[3,2-a]isoquinolin-7-ium chloride]	89.7%	11.6 ± 1.19 µM		
COc1ccc(C(=O)Oc2c(OC)ccc3cc4[n+](cc23)CCc2cc3c(cc2-4)OCO3)cc1 [Compound 4, 10-methoxy-9-((4-methoxybenzoyl)oxy)-5,6-dihydro-[1,3]dioxolo[4,5-g]isoquinolino[3,2-a]isoquinolin-7-ium chloride]	80%	18.4 ± 1.31 µM		
COc1ccc2cc3[n+](cc2c1OC(=O)c1cccc(O)c1)CCc1cc2c(cc1-3)OCO2 [Compound 5, 9-((3-hydroxybenzoyl)oxy)-10-methoxy-5,6-dihydro-[1,3]dioxolo[4,5-g]isoquinolino[3,2-a]isoquinolin-7-ium chloride]	98.1%			7.51 ± 0.42 µM
COc1ccc(C(=O)Oc2c(OC)ccc3cc4[n+](cc23)CCc2cc3c(cc2-4)OCO3)cc1OC [Compound 6, 9-((3,4-dimethoxybenzoyl)oxy)-10-methoxy-5,6-dihydro-[1,3]dioxolo[4,5-g]isoquinolino[3,2-a]isoquinolin-7-ium chloride]	73.9%	19.1 ± 1.01 µM		
COc1ccc2cc3[n+](cc2c1OC(=O)c1ccc2c(c1)OCO2)CCc1cc2c(cc1-3)OCO2 [Compound 7, 9-((benzo[d][1,3]dioxole-5-carbonyl)oxy)-10-methoxy-5,6-dihydro-[1,3]dioxolo[4,5-g]isoquinolino[3,2-a]isoquinolin-7-ium chloride]	99.7%			6.44 ± 0.5 µM
COc1cc(C(=O)Oc2c(OC)ccc3cc4[n+](cc23)CCc2cc3c(cc2-4)OCO3)cc(OC)c1OC [Compound 8, 10-methoxy-9-((3,4,5-trimethoxybenzoyl)oxy)-5,6-dihydro-[1,3]dioxolo[4,5-g]isoquinolino[3,2-a]isoquinolin-7-ium chloride]	72%	23.9 ± 1.87 µM		
COc1ccc2cc3[n+](cc2c1OC(=O)c1ccccc1Cl)CCc1cc2c(cc1-3)OCO2 [Compound 10, 9-((2-chlorobenzoyl)oxy)-10-methoxy-5,6-dihydro-[1,3]dioxolo[4,5-g]isoquinolino[3,2-a]isoquinolin-7-ium chloride]	88.5%	12.2 ± 0.82 µM		
COc1ccc2cc3[n+](cc2c1OC(=O)c1cccc(Cl)c1)CCc1cc2c(cc1-3)OCO2 [Compound 11, 9-((3-chlorobenzoyl)oxy)-10-methoxy-5,6-dihydro-[1,3]dioxolo[4,5-g]isoquinolino[3,2-a]isoquinolin-7-ium chloride]	95.5%			9.43 ± 0.8 µM
COc1ccc2cc3[n+](cc2c1OC(=O)c1ccc(Cl)cc1)CCc1cc2c(cc1-3)OCO2 [Compound 12, 9-((4-chlorobenzoyl)oxy)-10-methoxy-5,6-dihydro-[1,3]dioxolo[4,5-g]isoquinolino[3,2-a]isoquinolin-7-ium chloride]	96.5%	10.6 ± 0.6 µM		
COc1ccc2cc3[n+](cc2c1OC(=O)c1ccccc1F)CCc1cc2c(cc1-3)OCO2 [Compound 13, 9-((2-fluorobenzoyl)oxy)-10-methoxy-5,6-dihydro-[1,3]dioxolo[4,5-g]isoquinolino[3,2-a]isoquinolin-7-ium chloride]	72%	24.9 ± 1.78 µM		
COc1ccc2cc3[n+](cc2c1OC(=O)c1cccc(F)c1)CCc1cc2c(cc1-3)OCO2 [Compound 14, 9-((3-fluorobenzoyl)oxy)-10-methoxy-5,6-dihydro-[1,3]dioxolo[4,5-g]isoquinolino[3,2-a]isoquinolin-7-ium chloride]	63%	32.8 ± 1.88 µM		
COc1ccc2cc3[n+](cc2c1OC(=O)c1ccc(F)cc1)CCc1cc2c(cc1-3)OCO2 [Compound 15, 9-((4-fluorobenzoyl)oxy)-10-methoxy-5,6-dihydro-[1,3]dioxolo[4,5-g]isoquinolino[3,2-a]isoquinolin-7-ium chloride]	73.9%	21.3 ± 1.97 µM		
COc1ccc2cc3[n+](cc2c1OC(=O)c1ccccc1Br)CCc1cc2c(cc1-3)OCO2 [Compound 16, 9-((2-bromobenzoyl)oxy)-10-methoxy-5,6-dihydro-[1,3]dioxolo[4,5-g]isoquinolino[3,2-a]isoquinolin-7-ium chloride]	95.3%			6.45 ± 0.52 µM
COc1ccc2cc3[n+](cc2c1OC(=O)c1ccccc1I)CCc1cc2c(cc1-3)OCO2 [Compound 17, 9-((2-iodobenzoyl)oxy)-10-methoxy-5,6-dihydro-[1,3]dioxolo[4,5-g]isoquinolino[3,2-a]isoquinolin-7-ium chloride]	94.9%			9.24 ± 0.5 µM
COc1ccc2cc3[n+](cc2c1OC(=O)c1ccccc1C(F)(F)F)CCc1cc2c(cc1-3)OCO2 [Compound 18, 10-methoxy-9-((2-(trifluoromethyl)benzoyl)oxy)-5,6-dihydro-[1,3]dioxolo[4,5-g]isoquinolino[3,2-a]isoquinolin-7-ium chloride]	86.1%	15.7 ± 1.34 µM		
COc1ccc2cc3[n+](cc2c1OC(=O)c1ccccc1[N+](=O)[O-])CCc1cc2c(cc1-3)OCO2 [Compound 19, 10-methoxy-9-((2-nitrobenzoyl)oxy)-5,6-dihydro-[1,3]dioxolo[4,5-g]isoquinolino[3,2-a]isoquinolin-7-ium chloride]	81.6%	10.5 ± 1.03 µM		
COc1ccc2cc3[n+](cc2c1OC(=O)c1ccc(C#N)cc1)CCc1cc2c(cc1-3)OCO2 [Compound 20, 9-((4-cyanobenzoyl)oxy)-10-methoxy-5,6-dihydro-[1,3]dioxolo[4,5-g]isoquinolino[3,2-a]isoquinolin-7-ium chloride]	55.6%	26.5 ± 2.5 µM		
COc1ccc2cc3[n+](cc2c1OC(=O)c1c(Cl)cccc1Cl)CCc1cc2c(cc1-3)OCO2 [Compound 21, 9-((2,6-dichlorobenzoyl)oxy)-10-methoxy-5,6-dihydro-[1,3]dioxolo[4,5-g]isoquinolino[3,2-a]isoquinolin-7-ium chloride]	96.6%	5.86 ± 0.35 µM		
